Measured values from patent US7427680B2, “Fluorogenic substrates for BETA-lactamase gene expression” (The Regents of the University of California, priority 2001, dated 2008).

What was measured:
Bla = Bla (Escherichia coli, UniProt P62593); conditions: cited from earlier work
[1] = system: Bla-stably-transfected C6 glioma cells; assay: Fluorescence imaging of Bla activity in living cells; assay type: cell-based; conditions: loaded in Hank's Balanced Salts Solution 25 min, room temperature; excitation 540/25, emission 635/55
Description: FIG. 13A illustrates the structures of CR2 and CR2/AM. FIG. 13B presents fluorescence images (40×magnification) of wild type (right) and Bla-stably-transfected (left) C6 glioma cells loaded with CR2/AM in Hank's Balanced Salts Solution for 25 min at room temperature. The excitation filter was set at 540/25 (540 nm peak with a width of 25 nm around the peak). The emission filter was set at 635/55.

Sequence of Bla (P62593 24-286 limits assumed): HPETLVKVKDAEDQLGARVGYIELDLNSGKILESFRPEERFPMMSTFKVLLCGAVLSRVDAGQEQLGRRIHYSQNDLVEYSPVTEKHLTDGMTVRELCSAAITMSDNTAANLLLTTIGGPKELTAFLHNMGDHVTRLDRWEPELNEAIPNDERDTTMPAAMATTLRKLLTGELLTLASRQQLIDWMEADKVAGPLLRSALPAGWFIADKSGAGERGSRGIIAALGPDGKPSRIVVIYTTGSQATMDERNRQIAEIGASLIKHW

Row | SMILES | Km (Bla; Zlokarnik et al., Science 1998) [µM] | kcat (Bla; Zlokarnik et al., Science 1998) [s⁻¹] | enhancement of fluorescent emission (Bla; at similar wavelengths (about 460 nm)) [fold] | imaging of Bla activity in living cells [1]
1 | O=C(CNC(=O)c1cc2cc(Cl)c(O)cc2oc1=O)N[C@@H]1C(=O)N2C(C(=O)O)=C(CSc3ccc4c(c3)C(=O)OC43c4ccc(O)cc4Oc4cc(O)ccc43)CS[C@H]12 [CCF2] | 23 | 29 | 20 | 
2 | CC(=O)OCOC(=O)C1=C(/C=C\COc2ccc3nc4ccc(=O)cc-4oc3c2)C[S@H](O)[C@@H]2[C@H](NC(=O)Cc3cccs3)C(=O)N12 [CR2/AM] |  |  |  | able to image the Bla activity
